Results on 23 compounds are retold here after patent publication US8501770B2 (ArQule, Inc., priority 2009, dated 2013).

Sequence of Full-length inactive AKT1 (P31749 whole entry): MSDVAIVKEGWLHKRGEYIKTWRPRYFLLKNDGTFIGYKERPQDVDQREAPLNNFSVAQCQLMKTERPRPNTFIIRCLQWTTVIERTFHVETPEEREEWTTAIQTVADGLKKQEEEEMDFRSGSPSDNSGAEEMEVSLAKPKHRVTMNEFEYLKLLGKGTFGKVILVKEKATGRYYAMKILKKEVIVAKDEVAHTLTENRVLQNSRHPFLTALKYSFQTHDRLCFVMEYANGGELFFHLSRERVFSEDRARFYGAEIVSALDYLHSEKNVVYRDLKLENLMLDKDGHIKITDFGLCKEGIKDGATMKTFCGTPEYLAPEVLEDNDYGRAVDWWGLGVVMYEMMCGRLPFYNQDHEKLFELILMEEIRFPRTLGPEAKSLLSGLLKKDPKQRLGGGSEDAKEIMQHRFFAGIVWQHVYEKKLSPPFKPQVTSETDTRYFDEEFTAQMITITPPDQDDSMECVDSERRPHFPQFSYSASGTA

The target of the test is Full-length inactive AKT1 (Homo sapiens, UniProt P31749). Put plainly: Inactive Akt Alpha Screen Assay. The class given is biochemical. Conditions: values not marked with "*"; read-out: Akt1 IC50, (AlphaScreen). In outline:
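AlphaScreen read-out (excitation 640 nm, emission 570 nm) after 90 min incubation at room temperature in the dark. Signal comes from crosstide phosphorylation by AKT1, which was activated by added PDK1, MAPKAPK2, ATP and lipid vesicles, captured via phospho-AKT substrate antibody and streptavidin beads.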
(In general: In Alpha technology, singlet oxygen from a donor bead excites a nearby acceptor bead.)
`Nc1ncccc1-c1nc2ccc(-c3ccncc3)nc2n1-c1ccc(C2(N)CCC2)cc1` [Example 394, 3-(3-(4-(1-aminocyclobutyl)phenyl)-5-(pyridin-4-yl)-3H-imidazo[4,5-b]pyridin-2-yl)pyridin-2-amine]: the IC50 was 3.9 nM.
As for `Nc1ncccc1-c1nc2ccc(-c3cncnc3)nc2n1-c1ccc(C2(N)CCC2)cc1` [Example 395, 3-(3-(4-(1-aminocyclobutyl)phenyl)-5-(pyrimidin-5-yl)-3H-imidazo[4,5-b]pyridin-2-yl)pyridin-2-amine], the figure is 9.8 nM.
As for `COc1cccc(-c2ccc3nc(-c4cccnc4N)n(-c4ccc(C5(N)CCC5)cc4)c3n2)c1` [Example 396, 3-(3-(4-(1-aminocyclobutyl)phenyl)-5-(3-methoxyphenyl)-3H-imidazo[4,5-b]pyridin-2-yl)pyridin-2-amine], the figure is 3.2 nM; as for `Nc1ncccc1-c1nc2ccc(-c3cccc4[nH]ccc34)nc2n1-c1ccc(C2(N)CCC2)cc1` [Example 397, 3-(3-(4-(1-aminocyclobutyl)phenyl)-5-(1H-indol-4-yl)-3H-imidazo[4,5-b]pyridin-2-yl)pyridin-2-amine], 3.8 nM; as for `CN(C)Cc1cccc(-c2ccc3nc(-c4cccnc4N)n(-c4ccc(C5(N)CCC5)cc4)c3n2)c1` [Example 398, 3-(3-(4-(1-aminocyclobutyl)phenyl)-5-(3-((dimethylamino)methyl)phenyl)-3H-imidazo[4,5-b]pyridin-2-yl)pyridin-2-amine], 6.4 nM.
As for `CN(C)C(=O)c1ccc(-c2ccc3nc(-c4cccnc4N)n(-c4ccc(C5(N)CCC5)cc4)c3n2)cc1` [Example 399, 4-(3-(4-(1-aminocyclobutyl)phenyl)-2-(2-aminopyridin-3-yl)-3H-imidazo[4,5-b]pyridin-5-yl)-N,N-dimethylbenzamide], the figure is 21 nM.
For `CNC(=O)c1ccc(-c2ccc3nc(-c4cccnc4N)n(-c4ccc(C5(N)CCC5)cc4)c3n2)cc1` [Example 400, 4-(3-(4-(1-aminocyclobutyl)phenyl)-2-(2-aminopyridin-3-yl)-3H-imidazo[4,5-b]pyridin-5-yl)-N-methylbenzamide], the IC50 was determined as 13 nM.
For `Nc1ncccc1-c1nc2ccc(-c3cnccn3)nc2n1-c1ccc(C2(N)CCC2)cc1` [Example 401, 3-(3-(4-(1-aminocyclobutyl)phenyl)-5-(pyrazin-2-yl)-3H-imidazo[4,5-b]pyridin-2-yl)pyridin-2-amine], the IC50 turned out to be 6.4 nM.
On to `CC(=O)Nc1ccc(-c2cnc3c(c2)nc(-c2cccnc2N)n3-c2cccc(CNC(=O)c3cccc(F)c3)c2)cc1` [Example 402, N-(3-(6-(4-acetamidophenyl)-2-(2-aminopyridin-3-yl)-3H-imidazo[4,5-b]pyridin-3-yl)benzyl)-3-fluorobenzamide], for which the IC50 stood at 2830 nM.
As for `CS(=O)(=O)Nc1ccc(-c2ccc3nc(-c4cccnc4N)n(-c4ccc(C5(N)CCC5)cc4)c3n2)cc1` [Example 403, N-(4-{3-[4-(1-aminocyclobutyl)phenyl]-2-(2-aminopyridin-3-yl)-3H-imidazo[4,5-b]pyridin-5-yl}phenyl)methanesulfonamide], the figure is 4.5 nM; as for `Nc1ncccc1-c1nc2ccc(-c3ccc(N4CCOCC4)nc3)nc2n1-c1ccc(C2(N)CCC2)cc1` [Example 404, 3-{3-[4-(1-aminocyclobutyl)phenyl]-5-(6-morpholin-4-ylpyridin-3-yl)-3H-imidazo[4,5-b]pyridin-2-yl}pyridin-2-amine], 7.8 nM.
Take `CC(C)C(=O)Nc1cccc(-c2ccc3nc(-c4cccnc4N)n(-c4ccc(C5(N)CCC5)cc4)c3n2)c1` [Example 405, N-(3-{3-[4-(1-aminocyclobutyl)phenyl]-2-(2-aminopyridin-3-yl)-3H-imidazo[4,5-b]pyridin-5-yl}phenyl)-2-methylpropanamide]: the IC50 came out at 13 nM.
`Nc1ncccc1-c1nc2ccc(-c3cccc(NS(=O)(=O)C4CC4)c3)nc2n1-c1ccc(C2(N)CCC2)cc1` [Example 406, N-(3-{3-[4-(1-aminocyclobutyl)phenyl]-2-(2-aminopyridin-3-yl)-3H-imidazo[4,5-b]pyridin-5-yl}phenyl)cyclopropanesulfonamide]: the IC50 stood at 2.6 nM.
As for `Cc1ccc(S(=O)(=O)Nc2cccc(-c3ccc4nc(-c5cccnc5N)n(-c5ccc(C6(N)CCC6)cc5)c4n3)c2)cc1` [Example 407, N-(3-{3-[4-(1-aminocyclobutyl)phenyl]-2-(2-aminopyridin-3-yl)-3H-imidazo[4,5-b]pyridin-5-yl}phenyl)-4-methylbenzenesulfonamide], the figure is 2.8 nM; as for `Nc1ncccc1-c1nc2ccc(-c3cc[nH]c3)nc2n1-c1ccc(C2(N)CCC2)cc1` [Example 408, 3-{3-[4-(1-aminocyclobutyl)phenyl]-5-(1H-pyrrol-3-yl)-3H-imidazo[4,5-b]pyridin-2-yl}pyridin-2-amine], 2.4 nM; as for `CN(C)c1cccc(-c2ccc3nc(-c4cccnc4N)n(-c4ccc(C5(N)CCC5)cc4)c3n2)c1` [Example 409, 3-{3-[4-(1-aminocyclobutyl)phenyl]-5-[3-(dimethylamino)phenyl]-3H-imidazo[4,5-b]pyridin-2-yl}pyridin-2-amine], 5.3 nM.
In the case of `CN(C)c1ccc(-c2ccc3nc(-c4cccnc4N)n(-c4ccc(C5(N)CCC5)cc4)c3n2)cc1` [Example 410, 3-{3-[4-(1-aminocyclobutyl)phenyl]-5-[4-(dimethylamino)phenyl]-3H-imidazo[4,5-b]pyridin-2-yl}pyridin-2-amine], the IC50 was 9.7 nM.
On to `COc1cc(OC)cc(-c2ccc3nc(-c4cccnc4N)n(-c4ccc(C5(N)CCC5)cc4)c3n2)c1` [Example 411, 3-{3-[4-(1-aminocyclobutyl)phenyl]-5-(3,5-dimethoxyphenyl)-3H-imidazo[4,5-b]pyridin-2-yl}pyridin-2-amine], for which the IC50 is 4.5 nM.
For the compound `COCc1cccc(-c2ccc3nc(-c4cccnc4N)n(-c4ccc(C5(N)CCC5)cc4)c3n2)c1` [Example 412, 3-{3-[4-(1-aminocyclobutyl)phenyl]-5-[3-(methoxymethyl)phenyl]-3H-imidazo[4,5-b]pyridin-2-yl}pyridin-2-amine], the IC50 stood at 4 nM.
Turning to `COc1ccc(F)c(-c2ccc3nc(-c4cccnc4N)n(-c4ccc(C5(N)CCC5)cc4)c3n2)c1` [Example 413, 3-{3-[4-(1-aminocyclobutyl)phenyl]-5-(2-fluoro-5-methoxyphenyl)-3H-imidazo[4,5-b]pyridin-2-yl}pyridin-2-amine], the IC50 was 7 nM.
As for `COc1ccc(-c2ccc3nc(-c4cccnc4N)n(-c4ccc(C5(N)CCC5)cc4)c3n2)cc1OC` [Example 414, 3-{3-[4-(1-aminocyclobutyl)phenyl]-5-(3,4-dimethoxyphenyl)-3H-imidazo[4,5-b]pyridin-2-yl}pyridin-2-amine], the half-maximal inhibitory concentration (IC50) was determined as 4.9 nM.
Take `Nc1ncccc1-c1nc2cccnc2n1-c1ccc(C2(N)CCC2)cc1` [Example 415, 3-{3-[4-(1-aminocyclobutyl)phenyl]-3H-imidazo[4,5-b]pyridin-2-yl}pyridin-2-amine]: the IC50 worked out at 13 nM.
With `Nc1ncccc1-c1nc2ccc(-c3ccc4scnc4c3)nc2n1-c1ccc(C2(N)CCC2)cc1` [Example 416, 3-{3-[4-(1-aminocyclobutyl)phenyl]-5-(1,3-benzothiazol-5-yl)-3H-imidazo[4,5-b]pyridin-2-yl}pyridin-2-amine], the IC50 was 4.2 nM.

The term IC50 denotes the point on the concentration scale where inhibition reaches its midpoint.
